Results reported in ChEMBL document CHEMBL1201862, “PubChem BioAssay data set” (2004).
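Following 48 hours of exposure in 96-well plates, responses at five concentrations were used to interpolate endpoints linearly. Abbreviation: GI50, concentration required for 50% inhibition of growth.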 Active and inactive are the calls of the source. Cut-off read from the data, not from the text of the source: active = GI50 up to about 1.1 µM and inactive = higher.

How the values were obtained:
Assay in all cases: DTP human tumour cell line panel, 48 h
[1] = test system: SK-MEL-28
[2] = test system: NCI-H226
[3] = test system: HCT-116
[4] = test system: SW-620
[5] = test system: SK-MEL-5
[6] = test system: A498
[7] = test system: IGROV-1
[8] = test system: A549
[9] = test system: NCI-H23
[10] = test system: SNB-19
[11] = test system: MDA-MB-231
[12] = test system: HOP-62
[13] = test system: NCI-H460
[14] = test system: SK-MEL-2
[15] = test system: U-251
[16] = test system: UACC-62
[17] = test system: Hs-578T
[18] = test system: NCI/ADR-RES
[19] = test system: DU-145
[20] = test system: HL-60
[21] = test system: CAKI-1
[22] = test system: HOP-92
[23] = test system: BT-549
[24] = test system: SR
[25] = test system: RPMI-8226
[26] = test system: 786-0
[27] = test system: T47D
[28] = test system: OVCAR-3
[29] = test system: UACC-257
[30] = test system: M14
[31] = test system: OVCAR-5
[32] = test system: MOLT-4
[33] = test system: CCRF-CEM
[34] = test system: EKVX
[35] = test system: HCT-15
[36] = test system: K562
[37] = test system: NCI-H522
[38] = test system: MCF7
[39] = test system: UO-31
[40] = test system: HT-29
[41] = test system: COLO 205
[42] = test system: TK-10
[43] = test system: SK-OV-3
[44] = test system: SF-295
[45] = test system: OVCAR-8
[46] = test system: KM12
[47] = test system: SF-268
[48] = test system: SF-539
[49] = test system: MDA-MB-435
[50] = test system: ACHN
[51] = test system: PC-3
[52] = test system: OVCAR-4
[53] = test system: HCC 2998
[54] = test system: LOX IMVI
[55] = test system: RXF 393

For `O=S(=O)(Oc1ccc2oc3ccccc3c2c1-c1c(OS(=O)(=O)C(F)(F)F)ccc2oc3ccccc3c12)C(F)(F)F`, which GI50 [1] is on record?
Its GI50 is > 100 µM (inactive).

And the GI50 [2]?
Its GI50 is > 100 µM (inactive).

And the GI50 [3]?
Its GI50 is > 100 µM (inactive).

And the GI50 [4]?
The GI50 was > 100 µM (inactive).

And the GI50 [5]?
Its GI50 is > 100 µM (inactive).

And the GI50 [6]?
Its GI50 is > 100 µM (inactive).

And the GI50 [7]?
The GI50 was > 100 µM (inactive).

And the GI50 [8]?
Its GI50 is > 100 µM (inactive).

And the GI50 [9]?
Its GI50 is > 100 µM (inactive).

And the GI50 [10]?
Its GI50 is > 100 µM (inactive).

What about the GI50 [11] of the same molecule?
The GI50 was > 100 µM (inactive).

And the GI50 [12]?
The GI50 was > 100 µM (inactive).

And the GI50 [13]?
Its GI50 is > 100 µM (inactive).

What about the GI50 [14] of the same molecule?
The GI50 was > 100 µM (inactive).

What about the GI50 [15] of the same molecule?
The GI50 was > 100 µM (inactive).

And the GI50 [16]?
Its GI50 is > 100 µM (inactive).

And the GI50 [17]?
Its GI50 is > 100 µM (inactive).

And the GI50 [18]?
Its GI50 is > 100 µM (inactive).

And the GI50 [19]?
The GI50 was > 100 µM (inactive).

What about the GI50 [20] of the same molecule?
Its GI50 is 8.28 µM (inactive).

And the GI50 [21]?
The GI50 was > 100 µM (inactive).

And the GI50 [22]?
The GI50 was > 100 µM (inactive).

What about the GI50 [23] of the same molecule?
The GI50 was > 100 µM (inactive).

What about the GI50 [24] of the same molecule?
Its GI50 is > 100 µM (inactive).

What about the GI50 [25] of the same molecule?
Its GI50 is > 100 µM (inactive).

And the GI50 [26]?
Its GI50 is > 100 µM (inactive).

What about the GI50 [27] of the same molecule?
Its GI50 is > 100 µM (inactive).

And the GI50 [28]?
The GI50 was > 100 µM (inactive).

What about the GI50 [29] of the same molecule?
The GI50 was > 100 µM (inactive).

What about the GI50 [30] of the same molecule?
The GI50 was > 100 µM (inactive).

And the GI50 [31]?
The GI50 was > 100 µM (inactive).

And the GI50 [32]?
Its GI50 is > 100 µM (inactive).

And the GI50 [33]?
Its GI50 is > 100 µM (inactive).

What about the GI50 [34] of the same molecule?
Its GI50 is > 100 µM (inactive).

What about the GI50 [35] of the same molecule?
Its GI50 is greater than 100 µM.

And the GI50 [36]?
The GI50 was > 100 µM (inactive).

And the GI50 [37]?
Its GI50 is > 100 µM (inactive).

And the GI50 [38]?
The GI50 was > 100 µM (inactive).

What about the GI50 [39] of the same molecule?
The GI50 was > 100 µM (inactive).

And the GI50 [40]?
The GI50 was > 100 µM (inactive).

And the GI50 [41]?
The GI50 was > 92.3 µM (inactive).

And the GI50 [42]?
The GI50 was > 100 µM (inactive).

And the GI50 [43]?
The GI50 was > 100 µM (inactive).

What about the GI50 [44] of the same molecule?
Its GI50 is > 100 µM (inactive).

And the GI50 [45]?
The GI50 was > 100 µM (inactive).

What about the GI50 [46] of the same molecule?
The GI50 was > 100 µM (inactive).

And the GI50 [47]?
The GI50 was > 100 µM (inactive).

What about the GI50 [48] of the same molecule?
The GI50 was > 100 µM (inactive).

What about the GI50 [49] of the same molecule?
Its GI50 is > 100 µM (inactive).

What about the GI50 [50] of the same molecule?
Its GI50 is > 100 µM (inactive).

What about the GI50 [51] of the same molecule?
The GI50 was > 100 µM (inactive).

What about the GI50 [52] of the same molecule?
The GI50 was > 100 µM (inactive).

What about the GI50 [53] of the same molecule?
Its GI50 is > 100 µM (inactive).

And the GI50 [54]?
Its GI50 is > 100 µM (inactive).

And the GI50 [55]?
Its GI50 is > 100 µM (inactive).
